Patent US20070179810A1, “Controls for antimicrobial use and infection” (priority 2006, published 2007)

Tests used:
[1] = system: Klebsiella pneumoniae; assay: Susceptibility of hospital Klebsiella pneumoniae isolates (annual antibiogram); type: cell-based; conditions: for Change in susceptibility of Klebsiella pneumoniae: 218 isolates, 2000 vs 2002 and 2003, T test; for Percent Susceptible in 2000 / Percent Susceptible in 2002 / Percent Susceptible in 2003: K. pneumoniae isolates; for Percent Susceptible in 2000: 2000, year prior to program; for Percent Susceptible in 2002 / Percent Susceptible in 2003: * = statistically significant change compared to 2000
Description: (§1) The Microbiology Department collected data on the susceptibility of major pathogens and published an annual antibiograrn, a copy of which was placed in each hospital chart as well as sent to all physicians. […] T tests were used in determining statistical significance between the years.

[2] = system: non-urinary E. coli; assay: Susceptibility of non-urinary E. coli isolates (annual antibiogram); type: cell-based; conditions: 548 isolates
Description: as §1

[3] = system: urinary E. coli; assay: Susceptibility of urinary E. coli isolates (annual antibiogram); type: cell-based; conditions: 1615 isolates
Description: as §1

[4] = system: non-urinary Pseuclomonas aeruginosa; assay: Susceptibility of non-urinary Pseudomonas aeruginosa isolates (annual antibiogram); type: cell-based; conditions: 338 isolates; 2000 vs 2002 and 2003
Description: as §1

[5] = system: Enterobucter cloucue; assay: Susceptibility of Enterobacter cloacae isolates (annual antibiogram); type: cell-based; conditions: 134 isolates; 2000 vs 2002 and 2003
Description: as §1

[6] = system: Proteus mirahilis; assay: Susceptibility of Proteus mirabilis isolates (annual antibiogram); type: cell-based; conditions: 133 isolates; 2000 vs 2002 and 2003
Description: as §1

[7] = system: Serratia marcescens; assay: Susceptibility of Serratia marcescens isolates (annual antibiogram); type: cell-based; conditions: 109 isolates; 2000 vs 2002 and 2003
Description: as §1

[8] = system: Pseudomonas aeruginosa
Description: as §1

[9] = 2000, last year before the study

Compound	Change in susceptibility of Klebsiella pneumoniae [1]	Percent Susceptible in 2000 [1] [%]	Percent Susceptible in 2002 [1]	Percent Susceptible in 2003 [1]	also measured
CC(C)(O/N=C(\C(=O)N[C@@H]1C(=O)N2C(C(=O)[O-])=C(C[n+]3ccccc3)CS[C@H]12)c1csc(N)n1)C(=O)O [Ceftazidime]	statistically significant increase in susceptibility	85	99* Percent	96* Percent	Change in susceptibility of non-urinary E. coli ([2]; 2000 vs 2002 and 2003): not significant; Susceptibility of urinary E. coli, before [3, 9]: 100%; Susceptibility of urinary E. coli, after ([3]; during the study (2002 and 2003), significant fall): 98%; Change in susceptibility of non-urinary Pseudomonas aeruginosa [4]: no statistically significant change; Change in susceptibility of Enterobacter cloacae [5]: no statistically significant change; Change in susceptibility of Proteus mirabilis [6]: no statistically significant change; Change in susceptibility of Serratia marcescens [7]: no statistically significant change
C[C@@H](O)[C@H]1C(=O)N2C(C(=O)O)=C(SCCN=CN)C[C@H]12 [imipenem]					Pseudomonas aeruginosa susceptibility in 2000 [8]; 2000: 93%; Pseudomonas aeruginosa susceptibility in 2002 ([8]; 2002, significant decrease): 83%; Pseudomonas aeruginosa susceptibility in 2003 [8]; 2003: 91%
C[C@H]1COc2c(N3CCN(C)CC3)c(F)cc3c(=O)c(C(=O)O)cn1c23 [Levofloxacin]		82	99* Percent	96* Percent	
NC[C@H]1O[C@H](O[C@H]2[C@H](O)[C@@H](O[C@H]3O[C@H](CO)[C@@H](O)[C@H](N)[C@H]3O)[C@H](N)C[C@@H]2N)[C@H](N)C[C@@H]1O [Tobramycin]	statistically significant increase in susceptibility	90	99* Percent	96%	
Gentamicin	statistically significant increase in susceptibility	83	99* Percent	96%	
CO/N=C(\C(=O)N[C@@H]1C(=O)N2C(C(=O)[O-])=C(C[N+]3(C)CCCC3)CS[C@H]12)c1csc(N)n1 [Cefepime]	did not reach statistical significance	94	98%	98%	Susceptibility of non-urinary E. coli, before [2, 9]: 100%; Susceptibility of non-urinary E. coli, after ([2]; during the study (2002 and 2003), significant decrease): 98%; Change in susceptibility of non-urinary Pseudomonas aeruginosa [4]: no statistically significant change; Change in susceptibility of Proteus mirabilis [6]: no statistically significant change; Change in susceptibility of Serratia marcescens [7]: no statistically significant change
CO/N=C(\C(=O)N[C@@H]1C(=O)N2C(C(=O)O)=C(COC(N)=O)CS[C@H]12)c1ccco1 [Cefuroxime]	statistically significant increase in susceptibility	78	94* Percent	93* Percent	
Trimethoprirn/Sulfa	statistically significant increase in susceptibility	86	97* Percent	93%	
CO/N=C(\C(=O)N[C@@H]1C(=O)N2C(C(=O)O)=C(CSc3nc(=O)c(=O)[nH]n3C)CS[C@H]12)c1csc(N)n1 [Ceftriaxone]	statistically significant increase in susceptibility	85	98* Percent	96* Percent	
